Results from patent publication US9499550B2 (BRISTOL-MYERS SQUIBB COMPANY, priority 2012, dated 2016).
Read-outs that look alike come from different tables or passages of the source.

Columns and labels:
[1] = test system: HCV genotype 1a (H77 strain) replicon in HUH-7 cells; assay: HCV replicon luciferase reporter assay, genotype 1a; type: cell-based; conditions: Hepatitis C virus, Huh-7, 72 h, HCV genotype 1a replicon luciferase, 3 days incubation
Procedure, shortened: (§1)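 Replicon inhibition for both genotypes was measured as Renilla luciferase signal (EnduRen, 7.5 μM final, 2 h) after 3-day, 37° C exposure of replicon-bearing HUH-7 cells in 4% FCS DMEM, 0.5% DMSO. The 1b construct carries S1179I; the 1a H77 construct carries P1496L and S2204I. Twenty-point, 3-fold dilutions were fitted four-parametrically for EC50, and CC50 was taken from multiplexed Cell Titer-Blue.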

[2] = test system: HCV genotype 1b (Con1) replicon in HUH-7 cells; assay: HCV replicon luciferase reporter assay, genotype 1b; type: cell-based; conditions: Hepatitis C virus, Huh-7, 72 h, HCV genotype 1b replicon luciferase, 3 days incubation
Procedure, shortened: as §1

Row | SMILES | EC50 ([1]; read-out: LE_1a (EC50, range)) [nM] | EC50 ([2]; read-out: LE_1b (EC50, range)) [nM] | EC50 ([1]; read-out: LE_1a (EC50)) [nM] | EC50 ([2]; read-out: LE_1b (EC50)) [nM] | EC50 ([1]; GETYPE1A, read-out: LE_1a (EC50, range)) [nM] | EC50 ([2]; GETYPE1B, read-out: LE_1b (EC50, range)) [nM]
1 | C[C@@H]1CC/C=C\[C@@H]2C[C@@]2(C(=O)NS(=O)(=O)C2(C)CC2)NC(=O)[C@@H]2C[C@@H](Oc3nccc4c5c(ccc34)OCCO5)CN2C(=O)[C@@H](NC(=O)O[C@@H]2C[C@@H]3C[C@@H]3C2)[C@H](C)C1 [Compound 5249, (1R,3r,5 S)-bicyclo[3.1.0]hexan-3-yl((2R,6S,7R,9R,13aS,14aR,16aS,Z)-2-((2,3-dihydro-[1,4]dioxino[2,3-f]isoquinolin-7-yl)oxy)-7,9-dimethyl-14a-(((1-methylcyclopropyl)sulfonyl)carbamoyl)-5,16-dioxo-1,2,3,5,6,7,8,9,10,11,13a,14,14a,15,16,16a-hexadecahydrocyclopropa[e]pyrrolo[1,2-a][1,4]diazacyclopentadecin-6-yl)carbamate] | < 5.46 | < 5.46 |  |  |  | 
2 | C[C@H]1CC/C=C\[C@@H]2C[C@@]2(C(=O)NS(=O)(=O)C2(C)CC2)NC(=O)[C@@H]2C[C@@H](Oc3nccc4c5c(ccc34)OCCO5)CN2C(=O)[C@@H](NC(=O)OCC2(C)CC2)[C@H](C)C1 [Compound 5250, (1-methylcyclopropyl)methyl ((2R,6S,7R,9S,13aS,14aR,16aS,Z)-2-((2,3-dihydro-[1,4]dioxino[2,3-f]isoquinolin-7-yl)oxy)-7,9-dimethyl-14a-(((1-methylcyclopropyl)sulfonyl)carbamoyl)-5,16-dioxo-1,2,3,5,6,7,8,9,10,11,13a,14,14a,15,16,16a-hexadecahydrocyclopropa[e]pyrrolo[1,2-a][1,4]diazacyclopentadecin-6-yl)carbamate] | 4.82 to 103 | 4.82 to 103 | 22.6 | 5.5 |  | 
3 | C[C@@H]1CC/C=C\[C@@H]2C[C@@]2(C(=O)NS(=O)(=O)C2(C)CC2)NC(=O)[C@@H]2C[C@@H](Oc3nccc4c5c(ccc34)OCCO5)CN2C(=O)[C@@H](NC(=O)OCC2(C)CC2)[C@H](C)C1 [Compound 5251, (1-methylcyclopropyl)methyl ((2R,6S,7R,9R,13aS,14aR,16aS,Z)-2-((2,3-dihydro-[1,4]dioxino[2,3-f]isoquinolin-7-yl)oxy)-7,9-dimethyl-14a-(((1-methylcyclopropyl)sulfonyl)carbamoyl)-5,16-dioxo-1,2,3,5,6,7,8,9,10,11,13a,14,14a,15,16,16a-hexadecahydrocyclopropa[e]pyrrolo[1,2-a][1,4]diazacyclopentadecin-6-yl)carbamate] | < 5.46 | < 5.46 |  |  |  | 
4 | C[C@H]1CC/C=C\[C@@H]2C[C@@]2(C(=O)NS(=O)(=O)C2(C)CC2)NC(=O)[C@@H]2C[C@@H](Oc3nccc4c5c(ccc34)OCCO5)CN2C(=O)[C@@H](NC(=O)O[C@H](C)C(F)(F)F)[C@H](C)C1 [Compound 5252, (R)-1,1,1-trifluoropropan-2-yl ((2R,6S,7R,9S,13aS,14aR,16aS,Z)-2-((2,3-dihydro-[1,4]dioxino[2,3-f]isoquinolin-7-yl)oxy)-7,9-dimethyl-14a-(((1-methylcyclopropyl)sulfonyl)carbamoyl)-5,16-dioxo-1,2,3,5,6,7,8,9,10,11,13a,14,14a,15,16,16a-hexadecahydrocyclopropa[e]pyrrolo[1,2-a][1,4]diazacyclopentadecin-6-yl)carbamate] | 4.82 to 103 | < 5.46 | 15.1 | 4.04 |  | 
5 | C[C@@H]1CC/C=C\[C@@H]2C[C@@]2(C(=O)NS(=O)(=O)C2(C)CC2)NC(=O)[C@@H]2C[C@@H](Oc3nccc4c5c(ccc34)OCCO5)CN2C(=O)[C@@H](NC(=O)O[C@H](C)C(F)(F)F)[C@H](C)C1 [Compound 5253, (R)-1,1,1-trifluoropropan-2-yl ((2R,6S,7R,9R,13aS,14aR,16aS,Z)-2-((2,3-dihydro-[1,4]dioxino[2,3-f]isoquinolin-7-yl)oxy)-7,9-dimethyl-14a-(((1-methylcyclopropyl)sulfonyl)carbamoyl)-5,16-dioxo-1,2,3,5,6,7,8,9,10,11,13a,14,14a,15,16,16a-hexadecahydrocyclopropa[e]pyrrolo[1,2-a][1,4]diazacyclopentadecin-6-yl)carbamate] | < 5.46 | < 5.46 |  |  |  | 
6 | C[C@H]1CC/C=C\[C@@H]2C[C@@]2(C(=O)NS(=O)(=O)C2CC2)NC(=O)[C@@H]2C[C@@H](Oc3nccc4c5c(ccc34)OC(F)(F)O5)CN2C(=O)[C@@H](NC(=O)OC(C)(C)C)[C@H](C)C1 [Compound 5256, tert-butyl ((2R,6S,7R,9S,13aS,14aR,16aS,Z)-14a-((cyclopropylsulfonyl)carbamoyl)-2-((2,2-difluoro-[1,3]dioxolo[4,5-f]isoquinolin-6-yl)oxy)-7,9-dimethyl-5,16-dioxo-1,2,3,5,6,7,8,9,10,11,13a,14,14a,15,16,16a-hexadecahydrocyclopropa[e]pyrrolo[1,2-a][1,4]diazacyclopentadecin-6-yl)carbamate] | 4.82 to 103 | 4.82 to 103 | 20.9 | 12.9 |  | 
7 | C[C@@H]1CC/C=C\[C@@H]2C[C@@]2(C(=O)NS(=O)(=O)C2CC2)NC(=O)[C@@H]2C[C@@H](Oc3nccc4c5c(ccc34)OC(F)(F)O5)CN2C(=O)[C@@H](NC(=O)OC(C)(C)C)[C@H](C)C1 [Compound 5257, tert-butyl ((2R,6S,7R,9R,13aS,14aR,16aS,Z)-14a-((cyclopropylsulfonyl)carbamoyl)-2-((2,2-difluoro-[1,3]dioxolo[4,5-f]isoquinolin-6-yl)oxy)-7,9-dimethyl-5,16-dioxo-1,2,3,5,6,7,8,9,10,11,13a,14,14a,15,16,16a-hexadecahydrocyclopropa[e]pyrrolo[1,2-a][1,4]diazacyclopentadecin-6-yl)carbamate] | < 5.46 | < 5.46 |  |  |  | 
8 | C[C@H]1CC/C=C\[C@@H]2C[C@@]2(C(=O)NS(=O)(=O)C2CC2)NC(=O)[C@@H]2C[C@@H](Oc3nccc4c5c(ccc34)OCCO5)CN2C(=O)[C@@H](NC(=O)OC(C)(C)C(F)(F)F)[C@H](C)C1 [Compound 5258, 1,1,1-trifluoro-2-methylpropan-2-yl((2R,6S,7R,9S,13aS,14aR,16aS,Z)-14a-((cyclopropylsulfonyl)carbamoyl)-2-((2,3-dihydro-[1,4]dioxino[2,3-f]isoquinolin-7-yl)oxy)-7,9-dimethyl-5,16-dioxo-1,2,3,5,6,7,8,9,10,11,13a,14,14a,15,16,16a-hexadecahydrocyclopropa[e]pyrrolo[1,2-a][1,4]diazacyclopentadecin-6-yl)carbamate] | 4.82 to 103 | < 5.46 |  |  |  | 
9 | C[C@@H]1CC/C=C\[C@@H]2C[C@@]2(C(=O)NS(=O)(=O)C2CC2)NC(=O)[C@@H]2C[C@@H](Oc3nccc4c5c(ccc34)OCCO5)CN2C(=O)[C@@H](NC(=O)OC(C)(C)C(F)(F)F)[C@H](C)C1 [Compound 5259, 1,1,1-trifluoro-2-methylpropan-2-yl((2R,6S,7R,9R,13aS,14aR,16aS,Z)-14a-((cyclopropylsulfonyl)carbamoyl)-2-((2,3-dihydro-[1,4]dioxino[2,3-f]isoquinolin-7-yl)oxy)-7,9-dimethyl-5,16-dioxo-1,2,3,5,6,7,8,9,10,11,13a,14,14a,15,16,16a-hexadecahydrocyclopropa[e]pyrrolo[1,2-a][1,4]diazacyclopentadecin-6-yl)carbamate] | < 5.46 | < 5.46 |  |  |  | 
10 | CCC(C)(OC(=O)N[C@@H]1C(=O)N2C[C@H](Oc3nccc4c5c(ccc34)OCCO5)C[C@H]2C(=O)N[C@]2(C(=O)NS(=O)(=O)C3CC3)C[C@H]2/C=C\CC[C@@H](C)C[C@H]1C)C(F)(F)F (some centres unmarked) [Compound 5260] |  |  |  |  | < 5.46 | < 5.46
11 | CCC(CC)(OC(=O)N[C@@H]1C(=O)N2C[C@H](Oc3nccc4c5c(ccc34)OCCO5)C[C@H]2C(=O)N[C@]2(C(=O)NS(=O)(=O)C3CC3)C[C@H]2/C=C\CC[C@H](C)C[C@H]1C)C(F)(F)F [Compound 5261, 3-(trifluoromethyl)pentan-3-yl ((2R,6S,7R,9S,13aS,14aR,16aS,Z)-14a-((cyclopropylsulfonyl)carbamoyl)-2-((2,3-dihydro-[1,4]dioxino[2,3-f]isoquinolin-7-yl)oxy)-7,9-dimethyl-5,16-dioxo-1,2,3,5,6,7,8,9,10,11,13a,14,14a,15,16,16a-hexadecahydrocyclopropa[e]pyrrolo[1,2-a][1,4]diazacyclopentadecin-6-yl)carbamate] | 4.82 to 103 | < 5.46 | 14.3 | 2.18 |  | 
12 | CCC(CC)(OC(=O)N[C@@H]1C(=O)N2C[C@H](Oc3nccc4c5c(ccc34)OCCO5)C[C@H]2C(=O)N[C@]2(C(=O)NS(=O)(=O)C3CC3)C[C@H]2/C=C\CC[C@@H](C)C[C@H]1C)C(F)(F)F [Compound 5262, 3-(trifluoromethyl)pentan-3-yl ((2R,6S,7R,9R,13aS,14aR,16aS,Z)-14a-((cyclopropylsulfonyl)carbamoyl)-2-((2,3-dihydro-[1,4]dioxino[2,3-f]isoquinolin-7-yl)oxy)-7,9-dimethyl-5,16-dioxo-1,2,3,5,6,7,8,9,10,11,13a,14,14a,15,16,16a-hexadecahydrocyclopropa[e]pyrrolo[1,2-a][1,4]diazacyclopentadecin-6-yl)carbamate] | < 5.46 | < 5.46 |  |  |  | 
